Data set [1] has as its system SCNT embryos transferred to pseudopregnant ICR females. Description: In vivo development of 2-cell SCNT embryos after embryo transfer (caesarian section at E19.5). The following applies: for Body weight at birth (g ± SD) / Placenta weight at birth (g ± SD) / No. of implanted / No. of pups / implanted (% per ET) / pups (% per ET): Kdm4d mRNA 1800 ng/μl. Further details: species or system mouse. The source says: Two-cell stage embryos generated by SCNT or in vitro fertilization were transferred to the oviducts of pseudopregnant (E0.5) ICR females. The pups were recovered by caesarian section on the day of delivery (E19.5) and nursed by lactating ICR females.

Data set [2] relates to reprogramming resistant regions (RRRs). Description: RNA-seq analysis of 2-cell SCNT embryos. The class given is cell-based, mouse. The procedure:
The embryos were directly lysed and used for cDNA synthesis using SMARTer Ultra Low Input RNA cDNA preparation kit (Clontech). After amplification, the cDNA samples were fragmented using Covaris sonicator (Covaris). Sequencing libraries were made with the fragmented DNA using NEBNext Ultra DNA Library Prep Kit for Illumina according to manufacturer's instruction (New England Biolabs). Single end 50 bp sequencing was performed on a HiSeq 2500 sequencer (Illumina). Sequencing reads were mapped to the mouse genome (mm9) with NovoalignV3.02.00. All programs were performed with default settings (unless otherwise specified). Uniquely mapped reads (about 70% of total reads) were subsequently assembled into transcripts guided by the reference annotation (UCSC gene models) with Cufflinks v2.0.2. Expression level of each gene was quantified with normalized FPKM (fragments per kilobase of exon per million mapped fragments). […] Statistical analyses were implemented with R (world wide web at www.r-project.org/). Independent 2-group Wilcoxon rank sum test were used to compare distributions using the wilcox.test function in R. Pearson's r coefficient was calculated using the cor function with default parameters. The hierarchical clustering analysis of the global gene expression pattern in different samples was carried out using hearmap.2 function (gplots package) in R.
A sliding window (size 100 kb, step size 20 kb) was used to assess the genome-wide expression level of 1-cell and 2-cell embryos. For each window, the expression level was quantified with normalized RPM (reads per millions of uniquely mapped reads). […] These activated regions were classed into three groups based on their expression differences in SCNT and IVF 2-cell embryos.

Setting [3] is: Sertoli donor cells (BDF1, male).
Setting [4] is: Sertoli donor cells (BDF1, male), E19.5.
[5] abbreviates: Sertoli donor cells (BDF1, male), E19.5, listed as Kdm4d.
Setting [6] is: Sertoli donor cells (BDF1, male), E19.5, listed as Kdm4d WT.
[7] abbreviates: cumulus donor cells (BDF1, female).
The mark [8] stands for this setting: cumulus donor cells (BDF1, female), E19.5.

Take “Kdm4d WT mRNA: in vitro transcribed full length mouse Kdm4d mRNA, encoding an H3K9me3-specific histone demethylase”: the figures for the “Body weight at birth (g ± SD)” value in data set [1] (setting [3]) and in data set [1] (setting [7]) were 1.48 ± 0.11 g and 1.60 ± 0.15 g, respectively. For the same substance, the “Placenta weight at birth (g ± SD)” value was found to be 0.26 ± 0.10 g in data set [1] (setting [3]) and 0.32 ± 0.03 g in data set [1] (setting [7]). Also, the No. of implanted is recorded as 59 in data set [1] (setting [4]) and 75 in data set [1] (setting [8]). For the same substance, the No. of pups is on record as 8 in data set [1] (setting [4]) and 9 in data set [1] (setting [8]). Besides, the “implanted (% per ET)” value came to 64% in data set [1] (setting [5]), 64.1% in data set [1] (setting [6]) and 63.0% in data set [1] (setting [8]). Moreover, the “pups (% per ET)” value in data set [1] (setting [5]) is reported as 8.7%; in data set [1] (setting [6]), “(8.7) %”; in data set [1] (cumulus donor cells (BDF1, female), E19.5, listed as Kdm4d), 7.6%; in data set [1] (cumulus donor cells (BDF1, female), E19.5, listed as Kdm4d WT) it was “(7.6) %”. Besides, in data set [1] (cumulus donor cells, E19.5), the “rate of implantation relative to control SCNT embryos” value is recorded as 3 fold. Further, in data set [1] (mouse, in vivo), the “growth and fertility of SCNT pups (in words)” value was “grew normally to adulthood and generated offspring by natural mating”. Also, the “repression of major satellite repeats in 2-cell SCNT embryos (in words)” value in data set [2] is “completely restored”. Besides, the “% of the 222 RRRs activated (FC >2) compared to control SCNT embryos” value in data set [2] (2-cell SCNT embryos) is given as 83%. Moreover, in data set [2] (2-cell SCNT embryos), the “SCNT-induced repression of class III retrotransposon elements such as MERVL (in words)” value was “partly relieved”. In addition, the “number of the 222 RRRs activated (FC >2)” value in data set [2] (2-cell SCNT embryos) amounted to 184. Moreover, in data set [2] (1212 without injection), the “total number of differentially expressed genes (FC >3) between SCNT and IVF 2-cell embryos” value came out at 475.
